The text below walks through data of article PMC6539005, “Half-Wave Potentials and In Vitro Cytotoxic Evaluation of 3-Acylated 2,5-Bis(phenylamino)-1,4-benzoquinones on Cancer Cells” (Molecules, 2019).

A short description of data set [1]: Half-wave potentials by cyclic voltammetry in acetonitrile. Type of data set: physicochemical. The settings on record: rt, Pt electrode, vs non-aqueous Ag/Ag+, given as negative of potential; for −E^I 1/2: first one-electron reduction, 0.1 M tetraethylammonium tetrafluoroborate; for −E^II 1/2: second one-electron reduction. As to the method: The members of the 3-acyl-2,5-bis(phenylamino)-1,4-benzoquinone series 2a–q were evaluated for their half-wave potentials (E^I 1/2 and E^II 1/2). They were measured by cyclic voltammetry in acetonitrile at room temperature, using a platinum electrode and 0.1 M tetraethylamoniumtetrafluoroborate as the supporting electrolyte. The voltammograms were run in the potential range from 0.0 to −2.0 V versus non-aqueous Ag/Ag^+.

The test system of another data set is T24 (bladder) cells. The data set is described as follows: MTT cytotoxicity assay, T24. Type of data set: cell-based, human. The conditions noted are these: Homo sapiens, 48 h incubation (b12: 72 h), n = 3, read-out: IC50 ± SEM T24. As to the method: (§1) The 3-acyl-2,5-bis(phenylamino)-1,4-benzoquinones 2a–q were evaluated for their in vitro cytotoxic activities against normal human embryonic kidney cells (HEK-293 cells) and two human cancer cell lines (T24 and DU-145 cells) in 72 h drug exposure assays. The cytotoxic activities of the new compounds were measured using conventional microculture tetrazolium reduction assays. The cytotoxic activities are expressed in terms of IC50. Doxorubicin, a clinically used anti-cancer agent, was taken as a positive control.
(§2) Human cancer cell lines T24 (bladder) and DU-145 (prostate), and non-tumor HEK-293 cells were obtained from the American Type Culture Collection (ATCC, Manassas, VA, USA). The cultures were maintained at a density of 1× 10^5 cells/mL and the medium was changed at 48- to 72-h intervals. They were cultured in high-glucose Dulbecco’s modified Eagle medium (Gibco, Grand Island, NY, USA) supplemented with 10% fetal calf serum, penicillin (100 U/mL), and streptomycin (100 μg/mL). All cultures were kept at 37 °C in 95% air/5% CO2 at 100% humidity. Phosphate-buffered saline (PBS) was purchased from Gibco. Cells were incubated at the indicated times at 37 °C, with or without quinones at various concentrations.
(§3) The cytotoxicity of the quinones was assessed by following the reduction of MTT (3-(4,5-Dimethylthiazol-2-yl)-2,5-diphenyltetrazolium bromide) to formazan blue. Cells were seeded into 96-well plates at a density of 10,000 cells/well for 24 h and then incubated for 48 h, with or without the quinone derivatives. Doxorubicin was used as the standard chemotherapeutic agent (positive control). Cells were then washed twice with warm PBS and incubated with MTT (0.5 mg/mL) for 2 hours at 37 °C. Blue formazan crystals were solubilized by adding 100 µL DMSO/well, and the optical density of the coloured solutions was subsequently read at 550 nm. Results are expressed as percentage of MTT reduction, compared to untreated control conditions. The IC50 values were calculated using the GraphPad Prism software (San Diego, CA, USA).

In a further data set the test system is DU-145 (prostate) cells. The data set is described as follows: MTT cytotoxicity assay, DU-145. Type of data set: cell-based. The conditions noted are these: Homo sapiens, 48 h incubation (b12: 72 h), n = 3, read-out: IC50 ± SEM DU-145. As to the method: as §1, §2, §3
(In general: Tetrazolium dyes change colour on reduction, which living cells bring about.)

In a further data set the test system is HEK-293 kidney cells. The data set is described as follows: MTT cytotoxicity assay, HEK-293. Type of data set: cell-based. The conditions noted are these: Homo sapiens, HEK293, non-tumor cells, 48 h incubation (b12: 72 h), n = 3, read-out: IC50 ± SEM HEK-293. Here is the method: as §1, §2, §3
The test system of another data set is T24 and DU-145 cells. The data set is described as follows: MTT cytotoxicity assay, both cancer cell lines. Type of data set: cell-based. The conditions noted are these: Homo sapiens; mean of T24 and DU-145 IC50. As to the method:
as §1, §2, §3

For the next data set, the system named is BCL2. The data set is described as follows: qPCR relative gene expression in T24 cells, BCL2. Type of data set: cell-based, human. The settings on record: 48 h; 2c at 32 µM, 2d at 68 µM; normalized to B2M, 2^−ΔΔCt vs vehicle; mean ± SEM, n = 5. Here is the method:
(§4) The T24 cells were cultured as previously mentioned. They were seeded into 6-well plates (2 × 10^5 cells/well) and, after 24 h of incubation, they were treated for 48 h with 2c and 2d (at 32 and 68 µM, respectively). Afterwards, they were washed with phosphate-buffered saline. The cellular lysate was prepared with E.Z.N.A.® RNA-Lock Reagent (Omega Bio-tek, Norcross, GA, USA) to preserve and immediately stabilize the total RNA for the subsequent gene expression assays. The total RNA isolated from the cells using the E.Z.N.A.® HP Total RNA Isolation Kit (Omega Bio-tek) was reverse-transcribed to cDNA using the AffinityScript QPCR cDNA Synthesis Kit (Agilent Technologies, Santa Clara, CA, USA) and 1000 ng of the RNA sample.
(§5) The cDNA synthesized was employed for qPCR using Brilliant III Ultra-Fast SYBR® Green QPCR Master Mix (Agilent Technologies) in a Mx3000P qPCR System (Agilent Technologies), employing a 96-well plate with 20 μL of PCR reaction per well and 10 pmol each of forward and reverse gene-specific primers. Ten genes were analyzed (see Table 4). The relative gene expressions were determined using Beta-2-microglobulin (B2M) as housekeeping, and the delta-delta Ct method (2^−ΔΔCt method) with regard to the vehicle-treated group (i.e., the reference group). Five biological replicates were used from each group (treated and reference group). […]

Another data set has as its system mTOR. The data set is described as follows: qPCR relative gene expression in T24 cells, mTOR. Type of data set: cell-based, human. The settings on record: 48 h; 2c at 32 µM, 2d at 68 µM; normalized to B2M, 2^−ΔΔCt vs vehicle; mean ± SEM, n = 5. Here is the method: as §4, §5
Background: Real-time PCR tracks product formation cycle by cycle.

The test system of a further data set is GSTP1. The data set is described as follows: qPCR relative gene expression in T24 cells, GSTP1. The settings on record: 48 h; 2c at 32 µM, 2d at 68 µM; normalized to B2M, 2^−ΔΔCt vs vehicle; mean ± SEM, n = 5. The format is cell-based, human. Here is the method: as §4, §5
For a further data set, the system named is GSR. The data set is described as follows: qPCR relative gene expression in T24 cells, GSR. The settings on record: 48 h; 2c at 32 µM, 2d at 68 µM; normalized to B2M, 2^−ΔΔCt vs vehicle; mean ± SEM, n = 5. Type of data set: cell-based, human. Here is the method: as §4, §5
A further data set has as its system CDC25A. The data set is described as follows: qPCR relative gene expression in T24 cells, CDC25A. Type of data set: cell-based, human. The settings on record: 48 h; 2c at 32 µM, 2d at 68 µM; normalized to B2M, 2^−ΔΔCt vs vehicle; mean ± SEM, n = 5. Here is the method: as §4, §5
The next data set deals with TP53. The data set is described as follows: qPCR relative gene expression in T24 cells, TP53. Type of data set: cell-based, human. The conditions noted are these: 48 h; 2c at 32 µM, 2d at 68 µM; normalized to B2M, 2^−ΔΔCt vs vehicle; mean ± SEM, n = 5. Here is the method: as §4, §5
The next data set deals with HRAS. The data set is described as follows: qPCR relative gene expression in T24 cells, HRAS. The format is cell-based, human. The settings on record: 48 h; 2c at 32 µM, 2d at 68 µM; normalized to B2M, 2^−ΔΔCt vs vehicle; mean ± SEM, n = 5. Here is the method:
as §4, §5

The next data set concerns HDAC3. The data set is described as follows: qPCR relative gene expression in T24 cells, HDAC3. Type of data set: cell-based, human. The conditions noted are these: 48 h; 2c at 32 µM, 2d at 68 µM; normalized to B2M, 2^−ΔΔCt vs vehicle; mean ± SEM, n = 5. As to the method: as §4, §5
The next data set deals with HDAC4. The data set is described as follows: qPCR relative gene expression in T24 cells, HDAC4. The format is cell-based, human. The settings on record: 48 h; 2c at 32 µM, 2d at 68 µM; normalized to B2M, 2^−ΔΔCt vs vehicle; mean ± SEM, n = 5. Here is the method: as §4, §5
The test system of data set [2] is human colon adenocarcinoma. On the set-up: method as in PMID 3746824. The settings on record: cited from earlier work.
In a further data set the test system is leukemia L1210. On the set-up: method as in PMID 3746824. The conditions noted are these: cited from earlier work.

The structures appear in SMILES notation.

A word on the IC50: it is the midpoint of a concentration-inhibition curve. With `CCCCCC(=O)C1=C(Nc2ccccc2)C(=O)C=C(Nc2ccccc2)C1=O` [2c, 3-Hexanoyl-2,5-bis(phenylamino)-1,4-benzoquinone], the “−E^I 1/2” value in data set [1] is 570 mV. Further, the “−E^II 1/2” value in data set [1] turned out to be 1090 mV. Moreover, the IC50 was 16.3 ± 1.7 µM in the data set on T24 (bladder) cells; 45.2 ± 4.5 µM in the data set with DU-145 (prostate) cells; more than 100 µM in the data set on HEK-293 kidney cells; 30.7 µM in the data set with T24 and DU-145 cells. For the same compound, the Relative Expression Levels in T24 Cells, BCL2 in the data set with BCL2 was determined as 1.28 ± 0.15. In the data set on mTOR, the Relative Expression Levels in T24 Cells, mTOR worked out at 0.99 ± 0.13. The same compound registered a Relative Expression Levels in T24 Cells, GSTP1 with GSTP1 of 0.9 ± 0.08. Moreover, in the data set on GSR, the Relative Expression Levels in T24 Cells, GSR turned out to be 0.96 ± 0.05. Also, the Relative Expression Levels in T24 Cells, CDC25A with CDC25A turned out to be 1.54 ± 0.13. This compound displayed a Relative Expression Levels in T24 Cells, TP53 in the data set with TP53 of 1.06 ± 0.11. In addition, in the data set with HRAS, the Relative Expression Levels in T24 Cells, HRAS was 1.07 ± 0.13. The compound further returned a Relative Expression Levels in T24 Cells, HDAC3 in the data set with HDAC3 of 1.03 ± 0.15. Also, the Relative Expression Levels in T24 Cells, HDAC4 with HDAC4 stood at 1.08 ± 0.13.
Turning to `CCCCCCCC(=O)C1=C(Nc2ccccc2)C(=O)C=C(Nc2ccccc2)C1=O` [2d, 3-Octanoyl-2,5-bis(phenylamino)-1,4-benzoquinone], the “−E^I 1/2” value in data set [1] is 590 mV. In data set [1], the “−E^II 1/2” value was found to be 910 mV. The IC50 is 34 ± 3.7 µM with T24 (bladder) cells; 23.5 ± 2.1 µM in the data set with DU-145 (prostate) cells; more than 100 µM in the data set on HEK-293 kidney cells; 28.7 µM in the data set with T24 and DU-145 cells. This compound displayed a Relative Expression Levels in T24 Cells, BCL2 in the data set with BCL2 of 0.8 ± 0.04. In the data set on mTOR, this compound had a Relative Expression Levels in T24 Cells, mTOR of 0.95 ± 0.02. Besides, in the data set with GSTP1, the Relative Expression Levels in T24 Cells, GSTP1 turned out to be 1.21 ± 0.04. Moreover, the Relative Expression Levels in T24 Cells, GSR in the data set on GSR turned out to be 1.07 ± 0.04. Further, the Relative Expression Levels in T24 Cells, CDC25A with CDC25A was determined as 1.07 ± 0.03. Further, the Relative Expression Levels in T24 Cells, TP53 with TP53 is 1.01 ± 0.04. In addition, in the data set with HRAS, the Relative Expression Levels in T24 Cells, HRAS is 1.33 ± 0.06. In addition, the Relative Expression Levels in T24 Cells, HDAC3 in the data set with HDAC3 was found to be 1.02 ± 0.05. The Relative Expression Levels in T24 Cells, HDAC4 in the data set with HDAC4 was 1.01 ± 0.02.
For `CC(C)c1ccc(NC2=C(Cl)C(=O)C(Nc3ccc(C(C)C)cc3)=C(Cl)C2=O)cc1` [B], in data set [2], the “in vitro inhibitory activity against human colon adenocarcinoma proliferation” value is on record as “good in vitro inhibitory activity”. For the same compound, the “activity against the leukemia L1210 screening in vitro” value in the data set on leukemia L1210 is listed as “active”.
